Experiments:
[1] = target: T1, hFASN enzyme (full length) (Homo sapiens, UniProt P49327); test: Fatty Acid Synthase (FASN) Inhibition Scintillation Proximity Assay; assay type: biochemical; conditions: for IC50: mean where tested more than once, ~ = standard error of pIC50 larger than 0.5; for inhibition at 10 µM: read-out: FASN % Effect @1E−05M
T1 construct: 10 μL hFASN enzyme (full length, 300 ng, purified in house); made in house
Outline: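 Eight compound concentrations (0.01–30 μM) tested in pH 7.5 phosphate buffer with DTT; human full-length enzyme converted [3H]-acetyl-CoA plus malonyl-CoA, with NADPH, over 60 min at room temperature. Hydrophobic [3H]-palmitate detected by bead proximity scintillation imaging; control-normalised data fitted for IC50/pIC50.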

[2] = target: T2, FASN Keto-reductase Domain (Homo sapiens, UniProt P49327); test: Fatty Acid Synthase Keto-Reductase Domain (FASN KR) Inhibition; assay type: biochemical; conditions: mean where tested more than once; read-out: FASN K-R Domain pIC50 (converted)
T2 construct: 10 μL hFASN enzyme (full length, 300 ng, purified in house) and 360 μM NADPH; made in house
Procedure: 10 μL assay buffer (100 mM KH2PO4 pH 7.5) was added to a 384-well clear plate (costar 3702). 0.3 μL compound (at concentrations of 30 μM, 10 μM, 3 μM, 1 μM, 0.30 μM, 0.10 μM, 0.03 μM and 0.01 μM)/DMSO, 10 μL hFASN enzyme (full length, 300 ng, purified in house) and 360 μM NADPH (except in blank) were then added. Then, 10 μL 180 mM ethyl acetoacetate (Aldrich 688983) was added, mixed and immediately thereafter, the absorbance at 340 nm (T1) by Multiscan (Labsystems) was measured. After 20 minutes incubation at room temperature the plate was measured again (T2).
The decrease in absorbance was calculated as (Absorbance before incubation T1)−(Absorbance following incubation T2).
(§1) Raw data generated by the instrument were normalized to % Controlmin values, which were calculated as: % Controlmin=100*(x−mLC)/(mHC−mLC)
(§2) where mLC and mHC were the means of the low control wells and high control wells on the plate, after manual exclusion of outliers. A plot of Controlmin versus test compound concentration was fitted to a 4-parameter logistic curve using a non-linear least squares regression method. From the plot, an IC50 (concentration at which 50% inhibition is achieved) was calculated. pIC50 values were calculated as −log(IC50), when IC50 is expressed in molar units.

[3] = test system: A2780 ovarian cells; test: A2780 Ovarian Cell Proliferation Assay in Lipid Reduced Medium, without Palmitate; assay type: cell-based; conditions: Homo sapiens, A2780; lipid reduced medium, without palmitate, 96 h, MTT; read-out: Proliferation A2780 w/o Palmitate pIC50 (converted)
Procedure: (§3) The biological assays described below correspond to comparative assays for ovarian cell proliferation. […] Compounds active in the absence of palmitate would not be expected to be active in the control.
(§4) 2500 cells were seeded in a 96-well clear well plate in 200 μL RPMI1640 with 10% Fetal Calf Serum (Hyclone), and incubated at 37° C., 5% CO2. Blanks were wells without cells. The next day the culture medium was aspirated and replaced by 160 μL culture medium with 10% Lipid-Reduced Serum (LRS, Hyclone). 20 μL test compound (at concentrations of 30 μM, 10 μM, 3 μM, 1 μM, 0.30 μM, 0.10 μM, 0.03 μM and 0.01 μM)/DMSO dilution followed by 20 μL ethanol-BSA solution were added to a final concentrations of 0.2% DMSO, 0.2% fatty-acid-free BSA, 0.25% ethanol. After 96 h incubation an MTT assay was performed. The absorbance was measured at 544 nm on a SPECTRAMAX.
as §1, §2
(§5) Representative compounds of the present invention were tested according to the procedure as described in Biological Example 3 above, with results as listed in Table BIO-3, below.

[4] = test system: A2780 ovarian cells; test: A2780 Ovarian Cell Proliferation Assay in Lipid Reduced Medium, with Palmitate (control); assay type: cell-based; conditions: Homo sapiens, A2780; lipid reduced medium, 25 μM palmitate, 96 h, MTT; read-out: Proliferation A2780 with Palmitate pIC50 (converted)
Procedure: as §3
as §4, with “palmitate-BSA” for “ethanol-BSA”, “DMSO, 25 μM palmitate (Sigma, P0500, 10 mM stock solution in ethanol)” for “DMSO,”, “incubation,” for “incubation”
A best fit curve was fitted by a minimum sum of squares method, plotting Controlmin versus test compound concentration. From the plot, an IC50 (concentration at which 50% inhibition is achieved) was calculated. pIC50 values, presented in the Table below, were calculated as −log(IC50).
as §5

T2 sequence (P49327 whole entry, the tested form may be a part): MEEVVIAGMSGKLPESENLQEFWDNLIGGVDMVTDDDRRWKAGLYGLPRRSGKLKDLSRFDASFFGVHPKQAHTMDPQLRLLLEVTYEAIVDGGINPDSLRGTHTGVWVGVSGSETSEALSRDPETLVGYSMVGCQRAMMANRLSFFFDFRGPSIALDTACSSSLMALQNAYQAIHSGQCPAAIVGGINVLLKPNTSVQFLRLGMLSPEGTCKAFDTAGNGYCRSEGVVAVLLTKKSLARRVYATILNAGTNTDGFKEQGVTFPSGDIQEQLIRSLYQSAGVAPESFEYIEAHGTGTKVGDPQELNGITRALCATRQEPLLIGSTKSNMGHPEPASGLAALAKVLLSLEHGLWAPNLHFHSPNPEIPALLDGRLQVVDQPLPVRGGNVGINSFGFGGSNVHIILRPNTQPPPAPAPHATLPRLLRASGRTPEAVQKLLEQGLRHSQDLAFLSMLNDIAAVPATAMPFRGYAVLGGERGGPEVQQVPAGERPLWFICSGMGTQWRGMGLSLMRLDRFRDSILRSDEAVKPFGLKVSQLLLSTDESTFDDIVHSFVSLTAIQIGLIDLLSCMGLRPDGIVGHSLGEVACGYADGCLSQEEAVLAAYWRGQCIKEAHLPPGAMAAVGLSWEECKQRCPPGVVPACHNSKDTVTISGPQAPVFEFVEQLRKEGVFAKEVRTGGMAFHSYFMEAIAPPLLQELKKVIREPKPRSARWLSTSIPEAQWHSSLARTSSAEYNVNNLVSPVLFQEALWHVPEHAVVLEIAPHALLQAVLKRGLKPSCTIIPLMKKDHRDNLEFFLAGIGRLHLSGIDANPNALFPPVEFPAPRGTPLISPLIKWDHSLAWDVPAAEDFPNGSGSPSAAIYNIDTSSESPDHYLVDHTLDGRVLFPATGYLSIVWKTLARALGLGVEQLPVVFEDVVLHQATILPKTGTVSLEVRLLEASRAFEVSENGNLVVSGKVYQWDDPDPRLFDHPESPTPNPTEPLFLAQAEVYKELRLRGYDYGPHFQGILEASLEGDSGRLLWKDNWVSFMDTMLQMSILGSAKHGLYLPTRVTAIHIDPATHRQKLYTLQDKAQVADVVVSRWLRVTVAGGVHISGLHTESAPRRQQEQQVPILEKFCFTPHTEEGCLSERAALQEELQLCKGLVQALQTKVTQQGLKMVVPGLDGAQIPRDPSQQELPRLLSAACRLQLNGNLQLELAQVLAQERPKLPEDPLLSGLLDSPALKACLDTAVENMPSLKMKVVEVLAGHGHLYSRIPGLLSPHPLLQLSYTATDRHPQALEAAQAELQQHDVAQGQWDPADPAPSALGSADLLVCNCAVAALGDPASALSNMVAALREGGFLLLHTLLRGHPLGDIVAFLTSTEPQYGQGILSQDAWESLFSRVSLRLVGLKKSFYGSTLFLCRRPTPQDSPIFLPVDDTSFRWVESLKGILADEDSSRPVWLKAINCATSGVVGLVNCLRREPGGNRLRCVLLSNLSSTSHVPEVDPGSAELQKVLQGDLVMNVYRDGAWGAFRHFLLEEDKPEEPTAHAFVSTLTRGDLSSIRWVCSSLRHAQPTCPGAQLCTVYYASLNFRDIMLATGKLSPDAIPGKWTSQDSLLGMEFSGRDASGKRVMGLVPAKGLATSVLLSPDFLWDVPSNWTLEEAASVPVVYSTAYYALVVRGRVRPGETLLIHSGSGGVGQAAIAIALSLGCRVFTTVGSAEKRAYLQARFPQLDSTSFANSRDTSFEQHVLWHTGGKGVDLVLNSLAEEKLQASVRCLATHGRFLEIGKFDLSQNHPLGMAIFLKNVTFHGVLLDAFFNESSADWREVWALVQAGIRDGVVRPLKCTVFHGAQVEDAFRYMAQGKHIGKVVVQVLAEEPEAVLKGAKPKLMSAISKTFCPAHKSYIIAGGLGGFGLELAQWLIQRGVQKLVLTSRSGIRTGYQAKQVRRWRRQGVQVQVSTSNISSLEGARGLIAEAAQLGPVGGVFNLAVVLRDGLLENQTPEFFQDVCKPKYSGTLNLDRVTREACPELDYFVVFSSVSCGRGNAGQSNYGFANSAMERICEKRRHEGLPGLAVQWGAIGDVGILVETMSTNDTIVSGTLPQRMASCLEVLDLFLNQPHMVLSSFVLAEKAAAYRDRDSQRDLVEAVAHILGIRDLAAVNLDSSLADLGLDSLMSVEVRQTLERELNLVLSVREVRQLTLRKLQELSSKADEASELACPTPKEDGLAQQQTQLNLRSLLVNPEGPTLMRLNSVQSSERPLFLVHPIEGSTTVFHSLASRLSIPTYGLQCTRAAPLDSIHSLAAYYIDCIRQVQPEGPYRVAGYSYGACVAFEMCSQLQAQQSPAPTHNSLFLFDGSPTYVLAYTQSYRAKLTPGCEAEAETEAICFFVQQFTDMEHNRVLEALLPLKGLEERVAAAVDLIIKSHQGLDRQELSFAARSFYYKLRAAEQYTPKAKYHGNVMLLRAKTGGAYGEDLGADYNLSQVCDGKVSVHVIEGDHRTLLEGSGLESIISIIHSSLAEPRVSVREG
T1 sequence (P49327 whole entry): as the sequence (P49327 whole entry, the tested form may be a part) above

SMILES	IC50 [1]	inhibition at 10 µM [1]	IC50 [2]	IC50 [3]	IC50 [4]
Cc1ccc(C(=O)N2CC(c3ccc(-c4ccsc4)cc3)C2)cc1NC(=O)c1ccc(NC(C)C)nc1 [Compound 26, 6-(isopropylamino)-N-(2-methyl-5-(3-(4-(thiophen-3-yl)phenyl)azetidine-1-carbonyl)phenyl)nicotinamide]	32.4 nM	105%	40.7 nM	~2290 nM	> 10000 nM
Cc1ccc(C(=O)N2CCC(c3ccc4ccncc4c3)CC2)cc1NC(=O)c1ccc(NC(C)C)nc1 [Compound 28, 6-(isopropylamino)-N-(5-(4-(isoquinolin-7-yl)piperidine-1-carbonyl)-2-methylphenyl)nicotinamide]	174 nM	101%	282 nM	~204 nM	2450 nM
Cc1ccc(C(=O)N2CC(c3ccc(-c4ccc5cnccc5c4)cc3)C2)cc1NC(=O)c1ccc(NC(C)C)nc1 [Compound 29, 6-(isopropylamino)-N-(5-(3-(4-(isoquinolin-6-yl)phenyl)azetidine-1-carbonyl)-2-methylphenyl)nicotinamide]	33.9 nM	103%	29.5 nM	174 nM	> 15100 nM
Cc1ccc(C(=O)N2CC(c3ccc(-c4ccncc4)cc3)C2)cc1NC(=O)c1ccc(NC(C)C)nc1 [Compound 31, 6-(isopropylamino)-N-(2-methyl-5-(3-(4-(pyridin-4-yl)phenyl)azetidine-1-carbonyl)phenyl)nicotinamide]	~17.8 nM	104%	52.5 nM	25.1 nM	1660 nM
Cc1ccc(C(=O)N2CCC(c3ccc4c(c3)NC(=O)CC4)CC2)cc1NC(=O)c1ccc(NC(C)C)nc1 [Compound 35, 6-(isopropylamino)-N-(2-methyl-5-(4-(2-oxo-1,2,3,4-tetrahydroquinolin-7-yl)piperidine-1-carbonyl)phenyl)nicotinamide]	437 nM	99%	794 nM	676 nM	~8910 nM
Cc1ccc(C(=O)N2CCC(c3ccc4ccncc4c3)CC2)cc1NC(=O)c1ccc(Cl)nc1 [Compound 37, 6-chloro-N-(5-(4-(isoquinolin-7-yl)piperidine-1-carbonyl)-2-methylphenyl)nicotinamide]	537 nM	94%	562 nM	617 nM	3390 nM
Cc1ccc(C(=O)N2CC(c3ccc(-c4ccnc5ccccc45)cc3)C2)cc1NC(=O)c1ccc(NC(C)C)nc1 [Compound 39, 6-(isopropylamino)-N-(2-methyl-5-(3-(4-(Quinolin-4-yl)phenyl)azetidine-1-carbonyl)phenyl)nicotinamide]	30.2 nM	111%	16.6 nM	33.9 nM	5500 nM
Cc1ccc(C(=O)N2CCC(c3ccc(-c4cn[nH]c4)cc3)CC2)cc1NC(=O)c1ccc(NC(C)C)nc1 [Compound 42, N-(5-(4-(4-(1H-pyrazol-4-yl)phenyl)piperidine-1-carbonyl)-2-methylphenyl)-6-(isopropylamino)nicotinamide]	21.4 nM	106%	34.7 nM	102 nM	> 10000 nM
Cc1ccc(C(=O)N2CCC(c3ccc(-c4ccnn4C)cc3)CC2)cc1NC(=O)c1ccc(NC(C)C)nc1 [Compound 44, 6-(Isopropylamino)-N-(2-methyl-5-(4-(4-(1-methyl-1H-pyrazol-5-yl)phenyl)piperidine-1-carbonyl)phenyl)nicotinamide]	61.7 nM	102%	89.1 nM	155 nM	> 10000 nM
Cc1ccc(C(=O)N2CCC(c3ccc4[nH]c(=O)sc4c3)CC2)cc1NC(=O)c1ccc(Cl)nc1 [Compound 48, 6-chloro-N-(2-methyl-5-(4-(2-oxo-2,3-dihydrobenzo[d]thiazol-6-yl)piperidine-1-carbonyl)phenyl)nicotinamide]	269 nM	92%	457 nM	1410 nM	> 10000 nM
Cc1ccc(C(=O)N2CCC(c3ccc4[nH]c(=O)sc4c3)CC2)cc1NC(=O)c1ccc(NC(C)C)nc1 [Compound 49, 6-(isopropylamino)-N-(2-methyl-5-(4-(2-oxo-2,3-dihydrobenzo[d]thiazol-6-yl)piperidine-1-carbonyl)phenyl)nicotinamide]	120 nM	97%	229 nM	813 nM	> 10000 nM
Cc1ccc(C(=O)N2CCC(c3ccc4c(c3)CC(=O)N4)CC2)cc1NC(=O)c1ccc(Cl)nc1 [Compound 50, 6-chloro-N-(2-methyl-5-(4-(2-oxoindolin-5-yl)piperidine-1-carbonyl)phenyl)nicotinamide]	309 nM	93%	603 nM	1230 nM	> 10000 nM
Cc1ccc(C(=O)N2CCC(c3ccc(-c4cnoc4)cc3)CC2)cc1NC(=O)c1ccc(NC(C)C)nc1 [Compound 51, 6-(isopropylamino)-N-(5-(4-(4-(isoxazol-4-yl)phenyl)piperidine-1-carbonyl)-2-methylphenyl)nicotinamide]	14.8 nM	110%	25.1 nM	~33.9 nM	1700 nM
Cc1ccc(C(=O)N2CC(c3ccc(-c4ccnn4C)cc3)C2)cc1NC(=O)c1ccc2ccccc2n1 [Compound 55, N-(2-methyl-5-(3-(4-(1-methyl-1H-pyrazol-5-yl)phenyl)azetidine-1-carbonyl)phenyl)quinoline-2-carboxamide]	437 nM	86%	513 nM	~77.6 nM	~85.1 nM
Cc1ccc(C(=O)N2CC(c3ccc(-c4ccnn4C)cc3)C2)cc1NC(=O)c1cncc(Br)c1 [Compound 56, 5-bromo-N-(2-methyl-5-(3-(4-(1-methyl-1H-pyrazol-5-yl)phenyl)azetidine-1-carbonyl)phenyl)nicotinamide]	309 nM	95%	457 nM	437 nM	912 nM
Cc1ccc(C(=O)N2CC(c3ccc(-c4ccnn4C)cc3)C2)cc1NC(=O)c1ccc(N2CCCCC2)nc1 [Compound 57, N-(2-methyl-5-(3-(4-(1-methyl-1H-pyrazol-5-yl)phenyl)azetidine-1-carbonyl)phenyl)-6-(piperidin-1-yl)nicotinamide]	25.1 nM	106%	25.7 nM	45.7 nM	6310 nM
